ChEMBL document CHEMBL1201862, “PubChem BioAssay data set” (2004)
Active and inactive are the calls of the source.

What was measured:
[1] = molecular target: Melanin-concentrating hormone receptor 1 (Homo sapiens, UniProt Q99705); test: Fluorescence-based counterscreen for antagonists of the G-protein coupled receptor 7 (GPR7): cell-based high throughput dose response assay to identify antagonists of the melanin-concentrating hormone receptor 1 (MCHR1).; type: functional
[2] = molecular target: T1, Neuropeptides B/W receptor type 1 (Homo sapiens, UniProt P48145); test: Fluorescence-based dose response cell-based high throughput screening assay to identify antagonists of the G-protein coupled receptor 7 (GPR7). [Related pubchem assays: 1952 (Screening assay (GPR7 antagonists).), 1880 (Summary AID.)]; type: functional
T1 sequence (P48145 whole entry): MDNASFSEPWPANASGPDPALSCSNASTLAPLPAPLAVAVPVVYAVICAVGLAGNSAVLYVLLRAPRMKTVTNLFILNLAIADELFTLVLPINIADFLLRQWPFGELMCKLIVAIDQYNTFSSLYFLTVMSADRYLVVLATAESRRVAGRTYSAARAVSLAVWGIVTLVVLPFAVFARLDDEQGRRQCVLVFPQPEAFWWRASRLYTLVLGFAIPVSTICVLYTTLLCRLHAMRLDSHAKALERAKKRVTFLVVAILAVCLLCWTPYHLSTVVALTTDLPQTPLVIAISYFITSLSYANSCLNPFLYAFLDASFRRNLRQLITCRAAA

[3] = HIV-1 AD8 envelope cell-cell fusion blockers – cherry-pick, dose response (AID 652062); type: functional, cell-based;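 further: luciferase signal from cell-cell fusion driven by HIV-1 clade B AD8 Env; potency is for inhibitors of fusion seen as a drop in luminescence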
[4] = blockers of HIV-1 envelope-mediated cell-cell fusion – cherry-pick, dose response (AID 652057); type: functional, cell-based
[5] = off-target signal loss in HeLa-CEM21 co-culture – HeLa F-luc CTL cells, cherry-picked, counter-screen for HIV-1 Env fusion inhibitor project, dose response (AID 652040); type: functional, cell-based;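 further: potency for signal decrease marking cytotoxic or nonspecific inhibition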
[6] = blockers of HIV-1 ZM109 envelope-driven cell-cell fusion – HeLa effector, CEM target cells, luciferase, cherry-pick, dose response (AID 652058); type: functional, cell-based;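 further: luciferase signal from HIV-1 Env mediated cell-cell fusion of effector and target cells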
[7] = viability of uninfected HEp-2 cells – cell-based, HTS, cytotoxicity control for RSV inhibitor project, dose response (AID 2410); type: functional; details: human respiratory syncytial virus
[8] = cells
[9] = cytotoxicity in MITF-independent A375 cells – cell-based, CellTiter-Glo luminescence, dry powder, set 4, counter-screen for MITF inhibitor project, dose response (AID 624364); type: functional; details: A-375;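 further: A375 melanoma cells are MITF independent so this is a counter screen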
[10] = viability loss in MITF-independent A375 cells – cell-based, CellTiter-Glo luminescence, dry powder, set 2, counter-screen for MITF inhibitor project, dose response (AID 624489); type: functional; details: A-375;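 further: actives are compounds lowering A375 viability meaning general cytotoxicity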
[11] = P. falciparum Dd2 growth inhibitors, dose response, SYBR Green, cherry-picked samples (AID 1159567); type: functional, cell-based
[12] = toxicity to human hepatoma HepG2 cells – cell-based, cherry-picked samples, cytotoxicity control, dose response (AID 1159577); type: functional
[13] = molecular target: Cytochrome P450 2C9 (Homo sapiens, UniProt P11712); details: Potency
[14] = molecular target: T2, fMet-Leu-Phe receptor (Homo sapiens, UniProt P21462); test: formyl peptide receptor binders – dose response (AID 519); type: functional
T2 sequence (P21462 whole entry): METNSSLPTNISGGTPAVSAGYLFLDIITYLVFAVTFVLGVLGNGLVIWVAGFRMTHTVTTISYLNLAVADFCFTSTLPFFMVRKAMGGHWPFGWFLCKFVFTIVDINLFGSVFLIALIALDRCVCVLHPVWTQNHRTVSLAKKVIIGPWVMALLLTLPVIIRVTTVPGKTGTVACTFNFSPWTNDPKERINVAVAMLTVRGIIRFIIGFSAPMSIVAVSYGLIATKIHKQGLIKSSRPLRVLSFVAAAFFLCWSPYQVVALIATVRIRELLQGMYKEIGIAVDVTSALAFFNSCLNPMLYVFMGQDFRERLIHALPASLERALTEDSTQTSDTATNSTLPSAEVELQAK

[15] = molecular target: T3, Rac GTPase-activating protein 1 (Homo sapiens, UniProt Q9H0H5); test: blockers of MgcRacGAP-driven Rac1 GTP hydrolysis – biochemical, ADP Hunter fluorescence, primary and confirmatory, confirmation (AID 624330); type: functional
T3 sequence (Q9H0H5 whole entry): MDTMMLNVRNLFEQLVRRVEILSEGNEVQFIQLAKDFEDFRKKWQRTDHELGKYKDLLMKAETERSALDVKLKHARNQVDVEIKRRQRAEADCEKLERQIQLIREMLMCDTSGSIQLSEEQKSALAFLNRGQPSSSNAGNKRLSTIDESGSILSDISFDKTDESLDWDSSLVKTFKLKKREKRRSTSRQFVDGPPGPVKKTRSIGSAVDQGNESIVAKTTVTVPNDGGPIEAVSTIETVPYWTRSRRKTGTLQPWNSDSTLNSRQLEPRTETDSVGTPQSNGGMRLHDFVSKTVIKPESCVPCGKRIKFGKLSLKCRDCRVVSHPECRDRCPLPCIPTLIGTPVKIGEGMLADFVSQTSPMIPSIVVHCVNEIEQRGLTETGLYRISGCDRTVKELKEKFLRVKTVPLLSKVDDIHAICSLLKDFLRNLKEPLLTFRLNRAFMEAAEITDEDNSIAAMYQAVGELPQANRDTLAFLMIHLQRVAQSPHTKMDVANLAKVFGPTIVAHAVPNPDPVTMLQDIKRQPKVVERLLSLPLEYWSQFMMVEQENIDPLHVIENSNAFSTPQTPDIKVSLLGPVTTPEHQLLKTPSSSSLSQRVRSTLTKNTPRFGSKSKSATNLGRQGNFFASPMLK

[16] = molecular target: Nonstructural protein 1 (Influenza A virus, UniProt Q194T2); type: functional, Influenza A virus (A/California/07/2009(H1N1))
[17] = growth inhibition of yeast DHODH-expressing 3D7 parasites – SYBR Green, dry powder samples, dose response (AID 1159570); type: functional, cell-based;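 further: parasite growth measured after 72 hours of compound exposure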
[18] = growth inhibition of PfATP4-mutant resistant parasites – NITD609-resistant line, SYBR Green, dry powder, dose response (AID 1159571); type: functional, cell-based;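 further: parasites synchronized at ring stage by sorbitol before testing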
[19] = Dd2 malaria parasite growth inhibition potency – SYBR Green, dry powder samples, dose response (AID 1159566); type: functional, cell-based;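 further: potency for growth inhibition with lower SYBR green DNA signal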
[20] = molecular target: T4, Leucine aminopeptidase (Plasmodium falciparum 3D7, UniProt Q8IL11); test: P. falciparum M17LAP inhibitors, primary screen, biochemical, fluorogenic H-Leu-NHMec substrate, 1536-well (AID 1619); type: functional
T4 sequence (Q8IL11 whole entry): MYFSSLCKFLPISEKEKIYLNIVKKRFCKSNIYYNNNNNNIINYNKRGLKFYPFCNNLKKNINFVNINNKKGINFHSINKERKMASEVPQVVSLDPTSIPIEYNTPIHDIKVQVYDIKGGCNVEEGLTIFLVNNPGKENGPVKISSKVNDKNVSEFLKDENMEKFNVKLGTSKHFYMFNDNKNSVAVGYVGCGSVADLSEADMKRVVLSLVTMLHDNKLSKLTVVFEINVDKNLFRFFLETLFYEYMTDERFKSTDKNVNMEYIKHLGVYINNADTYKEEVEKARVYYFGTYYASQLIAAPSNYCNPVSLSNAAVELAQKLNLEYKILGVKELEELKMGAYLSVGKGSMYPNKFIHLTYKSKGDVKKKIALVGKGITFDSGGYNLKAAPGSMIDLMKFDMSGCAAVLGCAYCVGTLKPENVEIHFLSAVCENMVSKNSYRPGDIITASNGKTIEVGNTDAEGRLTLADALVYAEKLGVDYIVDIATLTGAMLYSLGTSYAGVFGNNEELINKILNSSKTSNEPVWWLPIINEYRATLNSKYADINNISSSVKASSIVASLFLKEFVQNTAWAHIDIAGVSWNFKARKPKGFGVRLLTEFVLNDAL

[21] = Dd2 parasite growth inhibition in erythrocytes – SYBR Green, dry powder samples, set 9, dose response (AID 1159568); type: functional, cell-based
[22] = molecular target: Luciferin 4-monooxygenase (Photinus pyralis, UniProt P08659); test: inhibition of purified Photinus pyralis luciferase – biochemical, luminescence, dose response (AID 1891)
[23] = Luminescence Cell-Based Dose Confirmation HTS to Identify Inhibitors of Platelet Dense Granule Release. [Related pubchem assays: 1663 (Primary HTS), 1678 (Summary of Project)]; type: functional
[24] = molecular target: T5, Protein Tat (Human immunodeficiency virus type 1 group M subtype B (isolate HXB2)(HIV-1), UniProt P04608); type: functional;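 further: tat binding to TAR RNA read out by fluorescence polarization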
T5 sequence (P04608 whole entry): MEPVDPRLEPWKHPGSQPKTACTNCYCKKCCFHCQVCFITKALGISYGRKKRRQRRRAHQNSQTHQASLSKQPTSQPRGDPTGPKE

[25] = viability loss in THP-1 monocytes – THP-1 cells, cytotoxicity control for Vif-APOBEC3G degradation inhibitor project, dose response (AID 1117359); type: functional; details: THP-1
[26] = test system: Vero; test: cells; type: functional; details: Chlorocebus sabaeus
[27] = molecular target: T6, SUMO-activating enzyme (Homo sapiens, UniProt Q9UBT2); test: blockers of SAE1/SAE2–UBC9 SUMO transfer – biochemical, HTRF, uHTS, primary screen (AID 2006); type: protein-complex assay
[28] = molecular target: T6, SUMO-activating enzyme; test: blockers of UBC9-mediated SUMO conjugation – biochemical, AlphaScreen, SUMOylation inhibitor project, confirmation (AID 2018); type: functional

Chain of Cytochrome P450 2C9 (P11712 whole entry): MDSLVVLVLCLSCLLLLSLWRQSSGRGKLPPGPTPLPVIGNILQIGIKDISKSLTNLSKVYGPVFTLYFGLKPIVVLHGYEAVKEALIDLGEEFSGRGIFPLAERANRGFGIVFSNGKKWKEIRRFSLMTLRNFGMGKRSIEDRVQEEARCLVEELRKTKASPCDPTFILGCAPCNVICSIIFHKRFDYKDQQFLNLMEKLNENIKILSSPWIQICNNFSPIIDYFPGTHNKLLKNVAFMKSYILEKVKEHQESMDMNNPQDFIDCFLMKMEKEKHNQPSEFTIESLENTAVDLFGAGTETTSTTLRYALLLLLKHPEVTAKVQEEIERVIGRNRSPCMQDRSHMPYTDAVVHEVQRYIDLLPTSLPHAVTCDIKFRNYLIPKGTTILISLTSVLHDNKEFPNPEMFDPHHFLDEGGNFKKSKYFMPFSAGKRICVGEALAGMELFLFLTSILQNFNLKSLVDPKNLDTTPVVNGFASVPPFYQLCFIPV
Chain of Melanin-concentrating hormone receptor 1 (Q99705 whole entry): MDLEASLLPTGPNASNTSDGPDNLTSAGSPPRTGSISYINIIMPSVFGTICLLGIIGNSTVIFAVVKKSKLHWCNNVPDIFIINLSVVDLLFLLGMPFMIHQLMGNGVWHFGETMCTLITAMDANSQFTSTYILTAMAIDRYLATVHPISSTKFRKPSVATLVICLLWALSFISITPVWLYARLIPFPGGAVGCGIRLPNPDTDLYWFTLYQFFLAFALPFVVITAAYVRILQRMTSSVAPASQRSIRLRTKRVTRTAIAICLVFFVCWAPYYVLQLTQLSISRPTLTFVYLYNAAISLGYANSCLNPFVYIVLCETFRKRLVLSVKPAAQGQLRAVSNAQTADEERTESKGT
T6 sequence (Q9UBE0 whole entry): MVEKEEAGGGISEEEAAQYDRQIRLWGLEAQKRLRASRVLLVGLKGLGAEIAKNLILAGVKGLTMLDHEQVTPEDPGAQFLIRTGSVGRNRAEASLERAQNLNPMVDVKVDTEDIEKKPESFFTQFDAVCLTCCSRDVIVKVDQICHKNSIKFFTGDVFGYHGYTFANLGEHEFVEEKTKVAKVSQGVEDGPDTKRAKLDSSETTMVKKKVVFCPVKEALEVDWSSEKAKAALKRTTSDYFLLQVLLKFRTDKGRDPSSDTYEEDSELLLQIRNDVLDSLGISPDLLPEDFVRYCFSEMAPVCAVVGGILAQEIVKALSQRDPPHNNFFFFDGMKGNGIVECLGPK
T6 sequence (Q9UBT2 whole entry): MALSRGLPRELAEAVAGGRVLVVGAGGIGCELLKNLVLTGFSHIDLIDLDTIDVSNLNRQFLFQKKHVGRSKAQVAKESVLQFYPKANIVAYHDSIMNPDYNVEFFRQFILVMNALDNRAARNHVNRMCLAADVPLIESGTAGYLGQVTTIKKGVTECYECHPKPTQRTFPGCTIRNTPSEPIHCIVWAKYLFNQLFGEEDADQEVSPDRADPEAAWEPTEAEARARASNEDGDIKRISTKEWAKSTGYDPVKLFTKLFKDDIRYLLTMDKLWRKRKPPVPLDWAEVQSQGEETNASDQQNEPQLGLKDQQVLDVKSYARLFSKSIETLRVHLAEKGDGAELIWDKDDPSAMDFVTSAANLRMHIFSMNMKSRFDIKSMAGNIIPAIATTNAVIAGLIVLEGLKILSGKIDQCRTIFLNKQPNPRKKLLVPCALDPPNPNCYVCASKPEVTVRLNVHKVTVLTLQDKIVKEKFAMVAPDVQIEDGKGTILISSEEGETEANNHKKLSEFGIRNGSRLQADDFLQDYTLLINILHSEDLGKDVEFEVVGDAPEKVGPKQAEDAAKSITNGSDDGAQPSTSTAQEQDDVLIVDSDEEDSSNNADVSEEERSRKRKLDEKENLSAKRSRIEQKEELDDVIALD
Chain of Luciferin 4-monooxygenase (P08659 whole entry): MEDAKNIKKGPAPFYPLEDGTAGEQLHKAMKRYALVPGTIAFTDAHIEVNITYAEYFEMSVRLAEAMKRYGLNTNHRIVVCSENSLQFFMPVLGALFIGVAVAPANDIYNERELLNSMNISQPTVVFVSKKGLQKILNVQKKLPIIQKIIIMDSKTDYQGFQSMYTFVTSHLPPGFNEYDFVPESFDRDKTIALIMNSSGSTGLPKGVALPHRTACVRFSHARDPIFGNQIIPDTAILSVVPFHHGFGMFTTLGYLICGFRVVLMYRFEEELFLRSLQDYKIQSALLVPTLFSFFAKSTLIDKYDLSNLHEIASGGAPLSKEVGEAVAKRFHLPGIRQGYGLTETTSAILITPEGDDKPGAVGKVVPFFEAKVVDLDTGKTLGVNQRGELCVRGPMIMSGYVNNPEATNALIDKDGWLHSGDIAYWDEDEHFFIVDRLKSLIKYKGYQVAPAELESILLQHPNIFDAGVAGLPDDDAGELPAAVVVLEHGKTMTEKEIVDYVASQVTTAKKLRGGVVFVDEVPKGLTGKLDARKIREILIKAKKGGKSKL
Chain of Nonstructural protein 1 (Q194T2 whole entry): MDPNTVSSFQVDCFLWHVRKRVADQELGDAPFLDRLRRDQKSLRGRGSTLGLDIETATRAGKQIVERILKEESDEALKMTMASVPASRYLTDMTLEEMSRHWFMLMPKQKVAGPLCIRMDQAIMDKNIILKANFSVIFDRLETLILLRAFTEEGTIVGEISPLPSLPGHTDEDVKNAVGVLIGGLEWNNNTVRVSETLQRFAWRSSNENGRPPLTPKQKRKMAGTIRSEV

In the case of `COc1ccc(NS(=O)(=O)c2cccc(C(=O)NCC(c3ccc(F)cc3)N3CCOCC3)c2)cc1` (configuration not stated), the IC50 [1] is reported as 23.6 µM (not active) and the IC50 [2] is reported as > 43.8 µM (not active).

With `COC(=O)CNC(c1ccccc1)c1cc(C)ccc1NC(=O)CNC(=O)OCc1ccccc1` (configuration not stated) the AC50 [3] was 36.1 µM (active), the AC50 [4] was 3.28 µM (active) and the IC50 [1] was 20 µM (not active). For the same compound, the AC50 [5] was 6.15 µM (active), the AC50 [6] was 6.89 µM (active) and the IC50 [2] was 35.3 µM (not active).

For `CN(c1ccccc1)S(=O)(=O)c1ccc(C(=O)NCCc2ccccc2)cc1`, the IC50 [1] was 16 µM (not active) and the IC50 [2] was > 14.6 µM (not active).

With `c1ccc(CCn2c3ccccc3c3nnc(SCc4ccc5nonc5c4)nc32)cc1` the CC50 [7] was 22.3 µM (active) and the IC50 [8] was 28.3 µM (active).

With `O=C1CCCN1c1ccc(C(=O)N(Cc2nnc(-c3ccccc3Cl)o2)C2CC2)cc1` the CC50 [7] was 48.5 µM (active) and the IC50 [8] was 18.8 µM (active).

In the case of `O=S(=O)(Nc1cccc(-c2ccc(N3CCOCC3)nn2)c1)c1cc(Cl)ccc1Cl`, the CC50 [7] is reported as 23.5 µM (active) and the IC50 [8] is reported as 8.9 µM (active).

For `C=CCNC1=C(Nc2ccccc2)C(=O)c2ccccc2C1=O`, the AC50 [9] was > 70 µM (inactive) and the AC50 [10] was > 70 µM (inactive).

For `C[C@@H]1CN([C@@H](C)CO)C(=O)c2c(c3ccccc3n2C)-c2ccccc2CO[C@@H]1CN(C)Cc1ccccc1C(F)(F)F`, the AC50 [11] was 1.47 µM (active) and the AC50 [12] was 8.34 µM (active).

In the case of `CSc1ncnc2c1ncn2CC(=O)[C@H]1CC[C@H]2[C@H]3CCC4=CC(=O)CC[C@@]4(C)[C@@H]3CC[C@@]12C`, the AC50 [13] is reported as 3.16 µM (inconclusive).

In the case of `CC(=O)OCCNc1cc(N2CCN(C)CC2)c2noc3c2c1C(=O)c1ccccc1-3`, the Ki [14] is reported as > 66.7 µM (inactive), the IC50 [15] is reported as 117 µM (active) and the IC50 [16] is reported as 24.1 µM (active).

For `N#C[C@@H]1[C@H](c2ccccc2C2=CCCCC2)[C@@H](CO)N1C(=O)c1cccc(F)c1`, the AC50 [17] was 2.12 µM (active), the AC50 [18] was 7.9 µM (active) and the AC50 [11] was 2.74 µM (active). For the same compound, the AC50 [19] was 1.93 µM (active).

In the case of `Cc1cccc(N/N=C(\C#N)S(=O)(=O)C(C)(C)C)c1`, the IC50 [20] is reported as 19 µM (active).

In the case of `CCCCC#CC1C=CC(Oc2cc(OC)c(OC)c(OC)c2)C(COC(=O)OCC)O1` (configuration not stated), the AC50 [13] is reported as 6.31 µM (inconclusive).

In the case of `C/C=C/c1ccc([C@H]2[C@@H](CO)N(CC3CCCCC3)[C@H]2CNC(C)C)cc1`, the AC50 [21] is reported as 5.66 µM (active).

In the case of `O=C(NC1=C(N2CCSCC2)C(=O)c2ccccc2C1=O)c1ccc(Br)cc1`, the AC50 [9] is reported as > 70 µM (inactive) and the AC50 [10] is reported as 49.9 µM (active).

With `COc1ccc(S(=O)(=O)Nc2ccc3c(c2)C(=O)N([C@H](C)CO)C[C@@H](C)[C@@H](CN(C)S(=O)(=O)c2ccc(Cl)cc2)OCCCC[C@@H](C)O3)cc1` the AC50 [21] was 0.742 µM (active).

For `COc1ccc(CNC(=O)Cc2c(C(=O)O)[nH]c3ccccc23)cc1`, the IC50 [20] was 35.6 µM (active).

With `CC(C)C[C@@H](CC(=O)N[C@@H](CCCN)CC(=O)N[C@@H]1CCCC[C@H]1C(=O)N[C@H](CC(=O)N[C@@H](CCC(=O)O)CC(=O)O)Cc1c[nH]c2ccccc12)NC(=O)[C@@H]1CCCC[C@H]1N` the AC50 [13] was 39.8 µM (inconclusive).

For `O=C(Cn1cnc2c(cnn2-c2ccc(F)cc2)c1=O)OCc1ccccc1`, the Ki [14] was > 66.7 µM (inactive), the EC50 [22] was > 112 µM (not active) and the EC50 [23] was > 112 µM (not active).

With `Cc1ccc(C2C(C(=O)c3cnn(-c4ccccc4)c3C)=C(O)C(=O)N2CCN2CCOCC2)o1` (configuration not stated) the Ki [14] was 23.2 µM (inactive).

With `C[C@@H]1CN([C@@H](C)CO)C(=O)c2cc(NC(=O)Nc3ccccc3)ccc2O[C@@H](C)CCCCO[C@H]1CN(C)C(=O)Nc1ccc(C(F)(F)F)cc1` the IC50 [24] was > 100 µM (active) and the CC50 [25] was 36.3 µM (active).

With `Sc1nnc(-c2cccs2)n1/N=C/c1cn(-c2ccccc2)nc1-c1ccc(Cl)cc1` the CC50 [26] was > 25 µM (active), the IC50 [27] was 34.5 µM (active) and the IC50 [28] was 5.24 µM (active).

For `O=C1C(NS(=O)(=O)c2ccc(Br)cc2)=C(c2ccccc2)C(=O)c2ccccc21`, the AC50 [9] was > 70 µM (inactive) and the AC50 [10] was > 70 µM (inactive).
